Data on 5 molecules can be found in patent US8278288B2, “Organosiloxanes containing ester derivatives of ascorbic acid” (Dow Corning Corporation, priority 2007, dated 2012).

Like-named read-outs stand apart in the source and are kept apart here. Marks after values point to notes of the source that are not given here.

A short description of series [1]: Solubility in various personal care solvents. As for the experimental part:
A 36 wt % mixture of the referenced sample and listed solvents were prepared in a glass vial. The sealed glass vials containing the mixtures were then placed in a 60° C. water bath and periodically shaken and observed.

Series [2] has as its system Melanoderm tissue model MEL 300 A. In words: Skin whitening effect: melanin concentration in MelanoDerm tissue model. In kind it is cell-based, human. The procedure:
This example illustrates cell viability properties and efficacy of skin lightening formulations according to the present invention. In particular, two formulations according to the present invention (containing AUTS as prepared according to Example 4), water (a negative control), 1% kojic acid (Sigma, Wis.) in water (positive control), and ascorbyl tetraisopalmitate in D5 (decamethylcyclopentasiloxane) were assayed and compared for cell viability and skin lightening efficacy (see Table 1) MELANODERM™ cell viability was tested by MTT assay after exposure to test and reference preparations. The assays were carried out using Melanoderm tissue model MEL 300 A cell line (MELANODERM tissue model available from MatTek, Ashland, Mass.), This melanoderm model consists of normal, human-derived epidermal keratinocytes and melanocytes that have been co-cultured to form a multilayer, highly differentiated model of human epidermis. […] (Cell viability with both materials in D5 at 10 and 25 μL dose was >90%). Skin whitening effect was evaluated by measuring melanin concentration (μg/ml) after six applications of each preparation.

Where [3] appears, read: 36 wt % mixture, 60° C. water bath, ** = nearly clear to hazy solution, gels when cooled to room temperature.
Where [4] appears, read: 10 μl dose, six applications, in D5 (AUTS 3.2 wt %, VC-IP 6.4%).
[5] abbreviates: 25 μl dose, six applications, in D5 (AUTS 3.2 wt %, VC-IP 6.4%).

In the case of `C[Si](C)(C)O[Si](C)(CCCCCCCCCCC(=O)OCC(O)C1OC(=O)C(O)=C1O)O[Si](C)(C)C` (centres unmarked) [AUTS, Ascorbyl Undecyl Trisiloxane], the “Solubility in Water” value in series [1] (36 wt % mixture, 60° C. water bath, * = translucent mixture that thickens to a viscous hazy liquid when cooled) was “No”. Besides, in series [1] (setting [3]), the “Solubility in A = C12-15 Alkyl Benzoate (FINSOLV TN)” value (“Solubility … (FINSOLV TN)” below) is “Yes**”, the “Solubility in B = Cyclopentasiloxane (Dow/Corning 245 Fluid)” value (shortened to “Solubility … (Dow/Corning 245 Fluid)”) was “Yes**”, the “Solubility in C = Squalane (Uniqema PRIPURE 3759)” value (from here on “Solubility in C = Squalane”) is recorded as “Yes**” and the “Solubility in E = Caprylic/Capric Triglyceride” value is given as “Yes**”. Also, the “Melanin concentration at Day 10, Average” value in series [2] (setting [4]) is given as 37.4* μg/ml. Moreover, the “Melanin concentration at Day 10, Average” value in series [2] (setting [5]) was 26.6** μg/ml.

For `O=c1cc(CO)occ1O` [Kojic Acid, kojic acid], the “Melanin concentration at Day 10, Average” value in series [2] (25 μL dose, 1 wt % in water, six applications (positive control)) was determined as 41.9 µg/mL.

On to `CCCCCCCCC(CCCCCC)C(=O)OC[C@H](OC(=O)C(CCCCCC)CCCCCCCC)[C@H]1OC(=O)C(OC(=O)C(CCCCCC)CCCCCCCC)=C1OC(=O)C(CCCCCC)CCCCCCCC` (some centres unmarked) [VC-IP, ascorbyl tetraisopalmitate], for which the entries for the “Melanin concentration at Day 10, Average” value in series [2] (setting [4]) and in series [2] (setting [5]) were 57.8* μg/ml and 55.2** μg/ml, respectively.

As for “Bis-Ascorbyl Undecyl Polydimethylsiloxane [Comparative sample #2]”, in series [1], the “Solubility … (FINSOLV TN)” value is on record as “Yes”, the “Solubility … (Dow/Corning 245 Fluid)” value is given as “No”, the “Solubility in C = Squalane” value was “No” and the “Solubility in D = Tricaprylin (TRIVENT OC-G)” value is on record as “Yes”. The “Solubility in Water” value in series [1] is given as “No”.

As for “Bis-Ascorbyl Undecyl Tetramethyldisiloxane [Comparative sample #1]”, in series [1], the “Solubility … (FINSOLV TN)” value was “No”, the “Solubility … (Dow/Corning 245 Fluid)” value was “No”, the “Solubility in C = Squalane” value is “No” and the “Solubility in D = Tricaprylin (TRIVENT OC-G)” value was “No”. Also, in series [1], the “Solubility in Water” value is reported as “Yes*”.
